Each structure is given as a SMILES string. Counter-ions that a name gives are not always drawn.

The target of this test is T1, NHE-3 (Homo sapiens, UniProt P48764).
T1 sequence (P48764 26-834): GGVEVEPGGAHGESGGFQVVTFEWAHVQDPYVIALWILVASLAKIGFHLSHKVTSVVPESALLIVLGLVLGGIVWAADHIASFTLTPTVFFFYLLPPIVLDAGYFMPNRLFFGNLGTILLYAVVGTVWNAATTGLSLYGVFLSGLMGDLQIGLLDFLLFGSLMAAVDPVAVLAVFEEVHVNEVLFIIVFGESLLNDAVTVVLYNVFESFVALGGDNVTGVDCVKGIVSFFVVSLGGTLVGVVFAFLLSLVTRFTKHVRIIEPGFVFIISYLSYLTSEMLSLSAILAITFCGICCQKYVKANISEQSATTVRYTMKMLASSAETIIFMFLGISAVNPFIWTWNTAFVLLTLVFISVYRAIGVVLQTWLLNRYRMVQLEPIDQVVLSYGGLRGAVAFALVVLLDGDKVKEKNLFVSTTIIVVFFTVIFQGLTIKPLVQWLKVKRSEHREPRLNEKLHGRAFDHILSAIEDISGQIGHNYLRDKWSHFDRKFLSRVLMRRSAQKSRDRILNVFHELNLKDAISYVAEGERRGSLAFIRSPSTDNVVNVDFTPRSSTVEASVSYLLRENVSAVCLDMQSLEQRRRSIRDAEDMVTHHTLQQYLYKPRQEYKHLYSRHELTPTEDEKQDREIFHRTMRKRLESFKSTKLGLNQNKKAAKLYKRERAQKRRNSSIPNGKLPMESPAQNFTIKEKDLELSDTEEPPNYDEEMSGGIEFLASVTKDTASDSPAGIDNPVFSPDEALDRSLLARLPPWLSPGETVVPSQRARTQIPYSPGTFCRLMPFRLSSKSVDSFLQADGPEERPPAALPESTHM
Briefly: Determination of the NHE-inhibitory effect (recovery of intracellular pH after acidification, BCECF fluorescence). Type of test: cell-based. Particulars: pH recovery recorded for three minutes with NHE-3; BCECF-loaded cells. The protocol: Description of Assay: Determination of the NHE-Inhibitory Effect In this assay, the recovery of the intracellular pH (pHj) after an acidification which occurs even under bicarbonate-free conditions with functional NHE was determined. To this end, the pHj was determined using the pH-sensitive fluorescent dye BCECF (Calbiochem, the precursor BCECF-AM was employed). The cells were initially loaded with BCECF. The BCECF fluorescence was determined in a ratio fluorescence spectrometer (Photon Technology International, South Brunswick, N.J., USA) with excitation wavelengths of 505 and 440 nm and an emission wavelength of 535 nm and converted into the pHj using calibration plots. The cells had been incubated in NH4Cl buffer (pH 7.4) for the BCECF loading (NH4Cl buffer: 115 mM NaCl, 20 mM NH4Cl, 5 mM KCl, 1 mM CaCl2, 1 mM MgSO4, 20 mM Hepes, 5 mM glucose, 1 mg/ml BSA; a pH of 7.4 was adjusted with 1 M NaOH). The intracellular acidification was induced by adding 975 μl of an NH4Cl-free buffer (see below) to 25 μl aliquots of the cells incubated in NH4Cl buffer. The subsequent rate of pH recovery was recorded for two minutes with NHE1, five minutes with NHE2 and three minutes with NHE-3. To calculate the inhibitory power of the tested substances, the cells were initially investigated in buffers with which there was complete or absolutely no pH recovery. For complete pH recovery (100%), the cells were incubated in Na^+-containing buffer (133.8 mM NaCl, 4.7 mM KCl, 1.25 mM CaCl2, 1.25 mM MgCl2, 0.97 mM Na2HPO4, 0.23 mM NaH2PO4, 5 mM Hepes, 5 mM glucose, a pH of 7.0 was adjusted with 1 M NaOH). To determine the 0% value, the cells were incubated in an Na^+-free buffer (133.8 mM choline chloride, 4.7 mM KCl, 1.25 mM CaCl2, 1.25 mM MgCl2, 0.97 mM K2HPO4, 0.23 mM KH2PO4, 5 mM Hepes, 5 mM glucose, a pH of 7.0 was adjusted with 1 M NaOH). The substances to be tested were made up in the Na^+-containing buffer. The recovery of the intracellular pH at each tested concentration of a substance was expressed as a percentage of the maximum recovery. The IC50 of the respective substance for the individual NHE subtypes was calculated from the percentages of pH recovery using the Sigma Plot program.
Take `CCN(CC)C1=Nc2ccc(Cl)cc2C(c2ccc(N)cc2)C1` (stereo not shown) [Example 3, 4-(4-Aminophenyl)-6-chloro-2-diethylamino-3,4-dihydroquinoline hydrochloride]: the IC50 (usually the midpoint of a concentration-inhibition curve) was 9.19 µM.

In the case of `NC1=Nc2ccc(Cl)cc2C(c2ccc(N)cc2)C1` (stereo not shown) [Example 1, 2-Amino-4-(4-aminophenyl)-6-chloro-3,4-dihydroquinoline hydrochloride], the IC50 turned out to be 4.39 µM.

In turn, `CCN(CC)C1=Nc2ccc(Cl)cc2C(c2ccc(NC(=O)NCCN(C)C)cc2)C1` (stereo not shown) [Example 4, N-(2-Dimethylaminoethyl)-N′-4-[(6-chloro-3,4-dihydro-2-diethyl-aminoquinolin-4-yl)phenyl]urea hydrochloride] yielded an IC50 of 13.8 µM.

Compound `CCNC1=Nc2ccc(Cl)cc2C(c2ccc(N)cc2)C1` (stereo not shown) [Example 2, 4-(4-Aminophenyl)-6-chloro-2-ethylamino-3,4-dihydroquinoline hydrochloride] returned an IC50 of 10.9 µM.

(Values after US8106204B2, “Substituted 2-amino-4-phenyldihydroquinolines, processes for their preparation, pharmaceutical compositions and methods for their use” (Sanofi-Aventis, priority 2006, dated 2012).)
